Measured values as given in EP4800013A1, “PARG INHIBITOR” (Shanghai Qilu Pharmaceutical Research and Development …, priority 2023, dated 2025).
pIC50: −log10 of the molar value.

How the values were obtained:
PARG = molecular target: T1, PARG (Homo sapiens, UniProt Q86W56); assay: Enzymatic inhibitory activity against PARG, HTRF assay; assay type: biochemical; conditions: HTRF; PARylated PARP1 protein as substrate; 60 minutes at room temperature; read-out: IC50 against PARG enzyme
T1 construct: made in house
T1 sequence (Q86W56 whole entry): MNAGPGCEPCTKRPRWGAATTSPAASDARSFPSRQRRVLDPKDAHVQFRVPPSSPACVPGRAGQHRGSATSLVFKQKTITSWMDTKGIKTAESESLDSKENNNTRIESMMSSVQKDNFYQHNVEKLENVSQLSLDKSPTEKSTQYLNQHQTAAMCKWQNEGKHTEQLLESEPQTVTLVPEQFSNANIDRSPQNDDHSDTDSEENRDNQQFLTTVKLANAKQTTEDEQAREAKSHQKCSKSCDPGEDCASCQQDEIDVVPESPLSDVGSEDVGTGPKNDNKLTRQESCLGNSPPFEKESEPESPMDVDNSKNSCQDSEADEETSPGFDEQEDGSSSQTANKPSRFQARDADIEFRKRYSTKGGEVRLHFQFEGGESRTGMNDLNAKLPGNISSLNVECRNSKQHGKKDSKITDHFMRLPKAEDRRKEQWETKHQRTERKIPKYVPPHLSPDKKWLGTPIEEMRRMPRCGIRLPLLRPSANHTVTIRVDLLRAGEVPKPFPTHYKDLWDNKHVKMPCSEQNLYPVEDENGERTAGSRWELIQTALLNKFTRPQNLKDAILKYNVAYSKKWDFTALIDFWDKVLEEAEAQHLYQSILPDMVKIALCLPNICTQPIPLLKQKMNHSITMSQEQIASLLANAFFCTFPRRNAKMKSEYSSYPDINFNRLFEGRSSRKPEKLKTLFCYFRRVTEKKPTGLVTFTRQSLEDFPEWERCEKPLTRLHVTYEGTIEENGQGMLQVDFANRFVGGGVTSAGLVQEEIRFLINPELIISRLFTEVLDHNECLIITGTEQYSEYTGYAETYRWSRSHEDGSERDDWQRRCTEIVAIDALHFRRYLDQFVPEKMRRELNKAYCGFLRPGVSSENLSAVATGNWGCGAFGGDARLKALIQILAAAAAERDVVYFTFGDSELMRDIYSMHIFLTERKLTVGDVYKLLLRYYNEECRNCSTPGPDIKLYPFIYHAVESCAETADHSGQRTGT
Protocol: In this experiment, the enzymatic inhibitory activity of the compounds of the present disclosure against PARG was determined using an HTRF (homogeneous time-resolved fluorescence) assay.
HTRF assay reagents were purchased from PerkinElmer (Cat. Nos. 61HISTLB and 610SAXLB). The purified protein was prepared in-house.
PARG enzyme reaction buffer: 50 mM Tris (pH 7.4), 0.1 mg/mL BSA, 3 mM EDTA, 0.4 mM EGTA, 1 mM DTT, 50 mM KCl, and 0.01% Tween 20.
• 1) Using an ultra-micro pipette, the compounds of the present disclosure were serially diluted (starting at 10 µM with 3- to 5-fold serial dilutions) and added to a 384-well reaction plate, with each concentration tested in duplicate wells. Control group 1 was added with 10 µM control compound (100% inhibition group). Control group 2 was added with DMSO (0% inhibition group). After compound addition, the 384-well plate was centrifuged at 1000 rpm for 1 minute. • 2) 2.5 µL of PARG protein was added to each well and incubated with the compounds of the present disclosure at room temperature for 15 minutes, followed by centrifugation at 1000 rpm for 1 minute. • 3) 2.5 µL of PARylated PARP1 protein was added to each well and incubated at room temperature for 60 minutes, followed by centrifugation at 1000 rpm for 1 minute. • 4) 5 µL of His-Tb & SA-XL665 HTRF assay reagents were added to each well and incubated at room temperature for 60 minutes, followed by centrifugation at 1000 rpm for 1 minute. • 5) […] were measured using a PHERAstar FSX microplate reader from BMG. • 6) Data analysis was performed using GraphPad Prism 8. The IC50 values of the compounds of the present disclosure were calculated as follows. […] The average value of duplicate wells in control group 2 (0% inhibition group) was set as the relative inhibition rate of 0%. The HTRF signal values were converted into relative inhibition rates. The IC50 values of the compounds were calculated by fitting the data to a four-parameter logistic model. Table 15: Enzymatic inhibitory activity of the compounds of the present disclosure against PARG

KURAMOCHI cells = assay: Inhibition of proliferation of KURAMOCHI cells (CellTiter-Glo, intracellular ATP); assay type: cell-based; conditions: 168 h, incubated for 7 days, read-out: IC50 against KURAMOCHI cells
Protocol: In this experiment, the inhibitory effect of the compounds of the present disclosure on the proliferation of the cancer cell line KURAMOCHI was evaluated by measuring intracellular ATP levels using a bioluminescent assay, and the half maximal inhibitory concentration (IC50) was determined.
RPMI 1640 medium (Cat. No. 11875-093), fetal bovine serum (10099-141), and 100× Pen/Strep (15070-063) were purchased from GIBCO. CellTiter-Glo Luminescent Cell Viability Assay reagent (Cat. No. G7573) was purchased from Promega.
• 1) Day 1: KURAMOCHI cells were counted using a cell counter and seeded into a 96-well culture plate at a density of 4000 cells per well in 100 µL medium. The plate was incubated overnight in an incubator (37°C, 5% CO2). • 2) Day 2: Using a D300e digital dispenser (TECAN), 500 nL of serially diluted test compounds of the present disclosure (starting at 10 µM, a total of 9 concentrations, 1:4 dilution) were added to the cells in the culture plate. The final concentration of DMSO was 0.5%. The cell culture plate was incubated for 7 days in a cell culture incubator (37°C, 5% CO2). Control group 1 received only medium and DMSO (100% inhibition group). Control group 2 received only DMSO (0% inhibition group). The final concentration of DMSO in both groups was 0.5%. • 3) Day 9: 100 µL of CellTiter-Glo reagent was added to each well. The plate was shaken at 500 rpm for 2 minutes, centrifuged at 1000 rpm for 1 minute, and then incubated at room temperature in the dark for 10 minutes to stabilize the luminescence signal. • 4) Luminescence signals were measured using an EnVision microplate reader (PerkinElmer). • 5) Data analysis was performed using GraphPad Prism 8. The IC50 values of the compounds of the present disclosure were calculated as follows. The CTG signal values were analyzed. The average inhibition rate of control group 1 (100% inhibition group) was set as the relative inhibition rate of 100%. The average inhibition rate of control group 2 (0% inhibition group) was set as the relative inhibition rate of 0%. The CTG signal values were converted into relative inhibition rates. The inhibition percentage (inhibition%) for each concentration of the compounds of the present disclosure was calculated according to the following formula: Inhibition% = (b−x)/(b−a)*100%; [formula] • a = CTG value (highest concentration), b = CTG value (blank well), x = CTG value (test well). • IC50 was calculated using GraphPad Prism 8. • (1) The concentration and inhibition rate corresponding to each well were recorded. Statistical calculation was performed using Log10 (compound concentration). • (2) The data were input into GraphPad Prism 8 and Analysis was selected. • (3) Nonlinear regression (curve fit) was selected. • (4) Log (inhibitor) vs. response - Variable slope was selected. • (5) The calculation formula was selected, and the calculation was performed according to the following formula: Y = Bottom + (Top - Bottom) / (1 + 10 ^ ((LogIC50 - X) * HillSlope)); X: log of dose or concentration; Y: response; Top and Bottom: maximum and minimum response. • (6) The IC50 values were calculated by fitting the data. Table 16: Inhibitory effect of the compounds of the present disclosure on the proliferation of KURAMOCHI cells

C[C@H]1CN(c2cc(S(=O)(=O)NC3(C)CC3)cc3c2nc(C2COCCO2)n3-c2nnc(C(F)F)s2)C[C@H](C)N1 (stereo partly drawn) [Compound 077N]
pIC50 (PARG): 8.47
pIC50 (KURAMOCHI cells): 8.10

C=CCn1c(=O)n(-c2nnc(C(F)F)s2)c2cc(S(=O)(=O)NC3(C#N)CC3)cc(N3CCN(S(=O)(=O)C(C)C)CC3)c21 [Compound A052]
pIC50 (PARG): 8.80
pIC50 (KURAMOCHI cells): 8.70

C[C@H]1CN(c2cc(S(=O)(=O)NC3(C)CC3)cc3c2nnn3-c2nnc(C(F)F)s2)C[C@H](C)N1 [Compound 008B]
pIC50 (PARG): 8.02
pIC50 (KURAMOCHI cells): 8.05

C=CCn1c(=O)n(-c2nnc(C(F)F)s2)c2cc(S(=O)(=O)NC3(C#N)CC3)cc(N3CCN(C(=O)C(C)(O)C(F)(F)F)CC3)c21 (stereo not drawn) [Compound 073A]
pIC50 (PARG): 7.51
pIC50 (KURAMOCHI cells): 7.47

[2H]C([2H])([2H])C1(NS(=O)(=O)c2cc(N3C[C@H](C)N[C@@H](C)C3)c3c4nccnc4n(-c4nnc(C(F)F)s4)c3c2)CC1 [Compound 065J]
pIC50 (PARG): 8.62
pIC50 (KURAMOCHI cells): 8.15

[2H]C([2H])([2H])OC(C)(C)C(=O)N1CCN(c2cc(S(=O)(=O)NC3(C#N)CC3)cc3c2n(CC=C)c(=O)n3-c2nnc(C(F)F)s2)CC1 [Compound 067LD]
pIC50 (PARG): 8.66
pIC50 (KURAMOCHI cells): 8.30

Cc1nc2c(N3CCN(C(=O)N(C)C)CC3)cc(S(=O)(=O)NC3(C#N)CC3)cc2n1-c1nnc(C(F)F)s1 [Compound B021]
pIC50 (PARG): 7.60
pIC50 (KURAMOCHI cells): 7.29

COC(=O)N1CCN(c2cc(S(=O)(=O)NC3(C)CC3)cc3c2n(C)c(=O)n3-c2nnc(C(F)F)s2)CC1 [Compound A028]
pIC50 (PARG): 7.72
pIC50 (KURAMOCHI cells): 7.32

CN(C)C(=O)N1CCN(c2cc(S(=O)(=O)NC3(C)CC3)cc3c2[nH]c(=O)n3-c2nnc(C(F)F)s2)CC1 [Compound A004]
pIC50 (PARG): 7.97
pIC50 (KURAMOCHI cells): 7.10

CC(C)C(=O)N1CCN(c2cc(S(=O)(=O)NC3(C#N)CC3)cc3c2n(C)c(=O)n3-c2nnc(C(F)F)s2)CC1 [Compound A014]
pIC50 (PARG): 7.91
pIC50 (KURAMOCHI cells): 7.43

CN(C)C(=O)N1CCN(c2cc(S(=O)(=O)NC3(C)CC3)cc3c2ncn3-c2nnc(C(F)F)s2)CC1 [Compound B003]
pIC50 (PARG): 7.99
pIC50 (KURAMOCHI cells): 7.80

C=CCn1c(=O)n(-c2nnc(C(F)F)s2)c2cc(S(=O)(=O)NC3(C#N)CC3)cc(N3CCN(C(=O)N4CCOCC4)CC3)c21 [Compound 067G]
pIC50 (PARG): 8.06
pIC50 (KURAMOCHI cells): 7.59

C=CCn1c(=O)n(-c2nnc(C(F)F)s2)c2cc(S(=O)(=O)NC3(C#N)CC3)cc(N3CCN([S+]([O-])C(C)C)CC3)c21 (stereo not drawn) [Compound 074M]
pIC50 (PARG): 8.21
pIC50 (KURAMOCHI cells): 7.80

CN(C)C(=O)N1CCN(c2cc(S(=O)(=O)NC3(C)CC3)cc3c2nnn3-c2nnc(C(F)F)s2)CC1 [Compound C002]
pIC50 (PARG): 7.32
pIC50 (KURAMOCHI cells): 7.60

CN(C)C(=O)N1CC=C(c2cc(S(=O)(=O)NC3(C)CC3)cc3c2n(C)c(=O)n3-c2nnc(C(F)F)s2)CC1 [Compound A038]
pIC50 (PARG): 8.28
pIC50 (KURAMOCHI cells): 8.15

CN(C)C(=O)N1CCN(c2cc(S(=O)(=O)NC3(C#N)CC3)cc3c2ncn3-c2nnc(C(F)F)s2)CC1 [Compound B011]
pIC50 (PARG): 8.00
pIC50 (KURAMOCHI cells): 7.49

C=CCn1c(=O)n(-c2nnc(C(F)F)s2)c2cc(S(=O)(=O)NC3(C#N)CC3)cc(N3CCN(C(=O)C(C)C)CC3)c21 [Compound A051]
pIC50 (PARG): 8.12
pIC50 (KURAMOCHI cells): 7.92

C[C@H]1CN(c2cc(S(=O)(=O)NC3(C)CC3)cc3c2n2nc(Cl)nc2n3-c2nnc(C(F)F)s2)C[C@H](C)N1 [Compound 065X]
pIC50 (PARG): 9.30
pIC50 (KURAMOCHI cells): 8.40

CN(C)C(=O)N1CCN(c2cc(S(=O)(=O)NC3(C)COC3)cc3c2n(C)c(=O)n3-c2nnc(C(F)F)s2)CC1 [Compound A036]
pIC50 (PARG): 8.17
pIC50 (KURAMOCHI cells): 7.92

CC(C)n1c(=O)n(-c2nnc(C(F)F)s2)c2cc(S(=O)(=O)NC3(C#N)CC3)cc(N3CCN(C(=O)N(C)C)CC3)c21 [Compound A045]
pIC50 (PARG): 7.86
pIC50 (KURAMOCHI cells): 7.80

CC(C)Oc1nc2c(N3CCN(C(=O)C(C)C)CC3)cc(S(=O)(=O)NC3(C#N)CC3)cc2n1-c1nnc(C(F)F)s1 [Compound 057L]
pIC50 (PARG): 8.07
pIC50 (KURAMOCHI cells): 8.10

CC(C)n1c(=O)n(-c2nnc(C(F)F)s2)c2cc(S(=O)(=O)NC3(C#N)CC3)cc(N3CCN(S(=O)(=O)C(C)C)CC3)c21 [Compound A046]
pIC50 (PARG): 8.26
pIC50 (KURAMOCHI cells): 8.10

CC(C)C(=O)N1CCN(c2cc(S(=O)(=O)NC3(C)CC3)cc3c2n(C)c(=O)n3-c2nnc(C(F)F)s2)CC1 [Compound A003]
pIC50 (PARG): 8.27
pIC50 (KURAMOCHI cells): 7.89

C=CCn1c(=O)n(-c2nnc(C(F)F)s2)c2cc(S(=O)(=O)NC3(C#N)CC3)cc(N3CCN(S(=O)(=O)C(C)(C)C)CC3)c21 [Compound 074A]
pIC50 (PARG): 9.10
pIC50 (KURAMOCHI cells): 9.00

C[C@H]1CN(c2cc(S(=O)(=O)NC3(C#N)CC3)cc3c2c2nccnc2n3-c2nnc(C(F)F)s2)C[C@H](C)N1 [Compound 065K]
pIC50 (PARG): 8.20
pIC50 (KURAMOCHI cells): 7.66

CN(C)C(=O)N1CCC(c2cc(S(=O)(=O)NC3(C)CC3)cc3c2n(C)c(=O)n3-c2nnc(C(F)F)s2)CC1 [Compound A039]
pIC50 (PARG): 8.46
pIC50 (KURAMOCHI cells): 8.15

C[C@H]1CN(c2cc(S(=O)(=O)NC3(C#N)CC3)cc3c2nc(OC2CC2)n3-c2nnc(C(F)F)s2)C[C@H](C)N1 [Compound 077A]
pIC50 (PARG): 7.98
pIC50 (KURAMOCHI cells): 7.96

C[C@H]1CN(c2cc(S(=O)(=O)NC3(C)CC3)cn3c(-c4nnc(C(F)F)s4)c([C@H]4CCCO4)nc23)C[C@H](C)N1 [Compound 080B1]
pIC50 (PARG): 8.66
pIC50 (KURAMOCHI cells): 8.40

Cn1c(=O)n(-c2nnc(C(F)F)s2)c2cc(S(=O)(=O)NC3(CF)CC3)cc(N3CCNCC3)c21 [Compound A031]
pIC50 (PARG): 7.45
pIC50 (KURAMOCHI cells): 7.20

C=CCn1c(=O)n(-c2nnc(C(F)F)s2)c2cc(S(=O)(=O)NC3(C#N)CC3)cc(N3CCN(C(=O)C(C)(C)O)[C@H](C)C3)c21 [Compound 071C2]
pIC50 (PARG): 8.05
pIC50 (KURAMOCHI cells): 7.30

C[C@H]1CN(c2cc(S(=O)(=O)NC3(C)CC3)cc3c2nc(C2CCCCO2)n3-c2nnc(C(F)F)s2)C[C@H](C)N1 (stereo partly drawn) [Compound 077X]
pIC50 (PARG): 7.67
pIC50 (KURAMOCHI cells): 7.80

C=CCn1c(=O)n(-c2nnc(C(F)F)s2)c2cc(S(=O)(=O)NC3(C#N)CC3)cc(N3CCN(C(=O)N(C)C)CC3)c21 [Compound A041]
pIC50 (PARG): 8.36
pIC50 (KURAMOCHI cells): 7.96

C[C@H]1CN(c2cc(S(=O)(=O)NC3(C)COC3)cc3c2n2ncnc2n3-c2nnc(C(F)F)s2)C[C@H](C)N1 [Compound 065P]
pIC50 (PARG): 8.24
pIC50 (KURAMOCHI cells): 8.15
